The record followed here is patent publication US5480905A, “Benzodioxane derivatives” (Chugai Seiyaku Kabushiki Kaisha, priority 1991, dated 1996).

The assay deals with T1, serotonin 1A receptor (Rattus norvegicus, UniProt P19327).
T1 construct: the cortex and hippocampal tissue were extracted from the brain; from tissue; host or cells: brain cortex and hippocampus of 7-week-old male S.D. rats, washed membrane homogenate
T1 sequence (P19327 1-422): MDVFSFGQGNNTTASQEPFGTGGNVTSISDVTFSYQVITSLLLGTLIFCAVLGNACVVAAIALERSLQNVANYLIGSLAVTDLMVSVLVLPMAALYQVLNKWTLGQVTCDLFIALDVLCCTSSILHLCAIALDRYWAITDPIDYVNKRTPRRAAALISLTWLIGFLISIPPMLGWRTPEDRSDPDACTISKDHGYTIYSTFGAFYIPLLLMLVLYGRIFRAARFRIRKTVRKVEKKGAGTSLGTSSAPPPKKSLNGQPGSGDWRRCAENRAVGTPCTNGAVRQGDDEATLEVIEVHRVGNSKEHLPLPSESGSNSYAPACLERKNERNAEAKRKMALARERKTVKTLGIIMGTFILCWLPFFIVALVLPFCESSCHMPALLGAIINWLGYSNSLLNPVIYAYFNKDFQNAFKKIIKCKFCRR
Description: Serotonin 1A receptor binding experiment (3H-8-OH-DPAT). To be noted: rat cortex and hippocampal tissue; 0.5 nM 3H-8-OH-DPAT; IC50 in M; read-out: -logIC50 5-HT1A (converted).

Take `Cc1cccc2c1OC(CNCCNC(=O)C13CC4CC(CC(C4)C1)C3)CO2` (centres unmarked) [Compound 1, N-{[2-(8-methyl-1,4-benzodioxan-2-ylmethyl)amino]ethyl}tricyclo[3,3,1,1^3, ^7]decane-1-carboxyamide]: the IC50 is 1.17 nM.
As for `O=C(NCCN1CCN(c2ncccn2)CC1)C12CC3CC(CC(C3)C1)C2` [WY-50324, reference compound], the figure is 1.26 nM.
